{"source": "paper PMC4186383", "about": "“Evaluation of radical scavenging properties of shikonin” (Journal of Clinical Biochemistry and Nutrition, 2014)", "key": {"[1]": {"molecular_target": "T1, Nox2 (NADPH oxidase 2, flavocytochrome b558) (Sus scrofa, UniProt P52649)", "T1 construct": "gene CYBB; detergent-solubilized resting neutrophil membranes (1 pmol Nox2/flavocytochrome b558) plus cytosol; with cytosolic components of the Nox2 system", "assay": "cell-free reconstitution assay, SOD-sensitive cytochrome c reduction", "format": "biochemical"}, "[2]": {"molecular_target": "T1, Nox2 (NADPH oxidase 2, flavocytochrome b558)", "assay": "cell-free reconstitution assay, NADPH oxidation", "format": "biochemical"}}}
{"smiles": "CC(C)=CC[C@H](O)C1=CC(=O)c2c(O)ccc(O)c2C1=O", "note": "[alkannin]", "values": [{"measurement": "IC50", "setting": "[1]", "result": 2200, "unit": "nM"}]}
{"smiles": "CC(C)=CC[C@@H](O)C1=CC(=O)c2c(O)ccc(O)c2C1=O", "note": "[shikonin]", "values": [{"measurement": "IC50", "setting": "[2]", "result": 1100, "unit": "nM"}]}
